Here are results for 18 molecules from PubChem BioAssay (NCI).

SMILES strings stand for the structures.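 Compound exposure: 48 hours, 5 concentrations, 96-well plates. TGI denotes the concentration required for complete inhibition of growth.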

Holding throughout (assay): DTP human tumour cell line panel, 48 h
Assay [1] relates to COLO 205 colon.
For assay [2], the system named is HS 578T breast.
The subject of assay [3] is SK-MEL-5 melanoma.
For assay [4], the system named is K-562 leukemia.
Assay [5] deals with 786-0 renal.
For assay [6], the system named is HOP-92 NSCLC.
The test system of assay [7] is IGROV1 ovarian.
Assay [8] deals with SK-MEL-28 melanoma.
Assay [9] relates to EKVX NSCLC.
In assay [10] the test system is HCT-15 colon.
Assay [11] deals with SK-OV-3 ovarian.

Broadly, the TGI is the concentration at which net growth stops. Read a low TGI as greater sensitivity of the cells. Take `O=C1CCCC1C(O)(C(F)(F)Cl)C(F)(F)Cl` (stereo not drawn): the concentration for total growth inhibition (TGI) in [1], in assay [2], in [3], in [4], in [5] and in assay [6] was > 10 µM throughout. The TGI in [7], in [8], in assay [9], in [10] and in assay [11] was > 10 µM in each case.
In the case of `CCOC(=O)CCNC(=O)c1cc(C)cc2c1Oc1c(cc(C)cc1C(=O)NCCC(=O)OCC)S2`, the TGI is > 100 µM in assay [1]; > 100 µM in assay [2]; > 100 µM in assay [3]; > 100 µM in [4]; > 100 µM in [5]; 87.8 µM in assay [6]. In addition, the TGI in assay [7], in [8], in assay [9], in assay [10] and in [11] was > 100 µM in each case.
On to `CC(C)[Si](CC1=CCCCC12C(=O)N(COCC[Si](C)(C)C)c1ccccc12)(C(C)C)C(C)C` (stereo not drawn), for which the TGI in [1], in [2], in assay [3], in assay [4], in [5] and in assay [6] was > 100 µM throughout. The TGI in assay [7], in assay [8], in assay [9], in assay [10] and in assay [11] was > 100 µM each time.
Turning to `Cc1nc2c(ccc3[nH]c4ccccc4c32)s1`, the TGI in assay [1] is 37.8 µM; in [2], 46.5 µM; in assay [3], 29.6 µM; in [4] it was > 100 µM; in [5], > 100 µM; in assay [6], 45.4 µM. In addition, the TGI in assay [7] is > 100 µM; in assay [8], 60.3 µM; in assay [9] it was 69.1 µM; in [10], 51.9 µM; in assay [11], > 100 µM.
As to `CC1(C)C/C=C\CCC(O)C(O)CCC(C)(C)C1=O` (stereo not drawn), the TGI in assay [1], in assay [2], in [3], in assay [4], in assay [5] and in assay [6] was > 100 µM throughout. The TGI in assay [7], in assay [8], in assay [9], in assay [10] and in [11] was > 100 µM throughout.
Regarding `COc1ccc2oc(=O)c(-c3nc4ccccc4s3)cc2c1`, the total growth inhibition concentration (TGI) was > 100 µM in [1]; > 95.8 µM in [2]; > 100 µM in [3]; > 100 µM in [4]; 20.5 µM in [5]; 58.2 µM in assay [6]. Also, the TGI in [7] is 38.9 µM; in assay [8], > 100 µM; in assay [9], > 65 µM; in [10], > 100 µM; in assay [11] it was 36.5 µM.
On to `O=C1CN2CCN(CC2)CC(=O)Nc2ccc(cc2)S(=O)(=O)c2ccc(cc2)NC(=O)CN2CCN(CC2)CC(=O)Nc2ccc(cc2)S(=O)(=O)c2ccc(cc2)N1`, for which the TGI in assay [1], in assay [2], in assay [3], in assay [4], in [5] and in [6] was > 100 µM throughout. The TGI in assay [7] is > 100 µM; in assay [8], > 100 µM; in [9] it was > 100 µM; in assay [10], 30.7 µM; in assay [11], > 100 µM.
As to `Cc1csc(CP(=O)(OC(C)C)OC(C)C)n1`, the concentration for total growth inhibition (TGI) in assay [1], in assay [2], in assay [3], in [4], in assay [5] and in [6] was > 100 µM throughout. For the same molecule, the TGI in [7], in [8], in assay [9], in assay [10] and in assay [11] was > 100 µM throughout.
With `CCOC(=O)C1=CN(Cc2ccccc2)C2ON=C(c3ccc(Cl)cc3)C2C1` (stereo not drawn), the TGI was > 64.1 µM in [1]; 21.7 µM in [2]; > 65 µM in assay [3]; > 100 µM in assay [4]; > 69.5 µM in assay [5]; > 100 µM in [6]. For the same molecule, the TGI in assay [7] is > 50.5 µM; in [8] it was > 71.8 µM; in [9], > 65.1 µM; in assay [10] it was > 47.2 µM; in assay [11], > 85.9 µM.
For `O=[N+]([O-])C(=C(\Cl)NCCO)/C(Cl)=C(/Cl)Br`, the total growth inhibition concentration (TGI) in assay [1] was 2.74 µM; in [2], 28 µM; in [3], 7.3 µM; in assay [4] it was 2.97 µM; in assay [5] it was 2.75 µM; in assay [6] it was 3.53 µM. The TGI in assay [7] worked out at 10.6 µM; in assay [8], 5.51 µM; in assay [9], 10.4 µM; in assay [10] it was 2.78 µM; in [11] it was 28.5 µM.
On to `O=c1oc2ccc([N+](=O)[O-])cc2cc1-c1csc(-c2ccccc2)n1`, for which the TGI in assay [1], in assay [2], in assay [3], in [4], in [5] and in assay [6] was > 100 µM each time. Also, the TGI in [7], in assay [8], in assay [9], in assay [10] and in assay [11] was > 100 µM each time.
Consider `CC1=NN(c2cccc(S(=O)(=O)O)c2)C2(C1)SCC(=O)N2c1nc2ccccc2s1` (stereo not drawn), for which the TGI in [1], in assay [2], in assay [3], in assay [4], in assay [5] and in [6] was > 100 µM in each case. The TGI in [7], in assay [8], in [9], in [10] and in assay [11] was > 100 µM in each case.
Turning to `CCCCCC(=O)OC[n+]1ccc(-c2c(COC(=O)NC(C)C)c(COC(=O)NC(C)C)c3n2CCC3)cc1`, the TGI in assay [1], in assay [2], in assay [3], in assay [4], in assay [5] and in assay [6] was > 100 µM each time. Further, the TGI in assay [7], in assay [8], in assay [9], in [10] and in assay [11] was > 100 µM each time.
With `O=[N+]([O-])c1cc(C2ON=C(c3ccccc3)N2C23CC4CC(CC(C4)C2)C3)ccc1Cl` (stereo not drawn), the TGI in assay [1], in assay [2], in [3], in assay [4], in [5] and in assay [6] was > 100 µM throughout. Moreover, the TGI in [7], in [8], in assay [9], in assay [10] and in assay [11] was > 100 µM each time.
Consider `c1ccc2c[n+](Cc3ccnc4ccccc34)ccc2c1`, for which the total growth inhibition concentration (TGI) in assay [1], in assay [2], in assay [3], in assay [4], in assay [5] and in assay [6] was > 100 µM in each case. Besides, the TGI in [7], in [8], in [9], in assay [10] and in assay [11] was > 100 µM in each case.
On to `O=C1N(c2ccccc2)N=C2c3ccncc3C3=NN(c4ccccc4)C(=O)C123` (stereo not drawn), for which the TGI in assay [1] was 6.12 µM; in assay [2] it was > 100 µM; in [3], > 47 µM; in assay [4], > 100 µM; in [5] it was > 100 µM; in assay [6], > 100 µM. Moreover, the total growth inhibition concentration (TGI) in [7], in assay [8], in [9], in assay [10] and in [11] was > 100 µM in each case.
In the case of `C=CCOC1=C(OC(C)=O)C(C2COC(C)(C)O2)OC1=O` (stereo not drawn), the total growth inhibition concentration (TGI) is 36.9 µM in assay [1]; > 100 µM in assay [2]; 33.6 µM in [3]; 35.9 µM in assay [4]; 37.4 µM in assay [5]; 34.5 µM in assay [6]. The TGI was > 100 µM in assay [7]; 46.7 µM in assay [8]; 39.9 µM in [9]; 29.8 µM in [10]; > 100 µM in assay [11].
Regarding `CCN(CC)C(=O)CCNC(C)Cc1c[nH]c2ccccc12` (stereo not drawn), the TGI in assay [1], in [2], in [3], in assay [4], in assay [5] and in assay [6] was > 100 µM throughout. The total growth inhibition concentration (TGI) in [7], in [8], in [9], in [10] and in assay [11] was > 100 µM throughout.
